Data on two substances can be found in patent US7262173B2, “Chemosensitizing with liposomes containing oligonucleotides” (Georgetown University, priority 1997, dated 2007).

For series [1], the system named is Raf-1. The series is described as follows: Raf-1 expression in SQ-20B tumor xenografts after i.v. or intratumoral ODN. In kind it is in vivo, human. Conditions: intravenous treatment; compared with untreated controls. The procedure: FIG. 7: Effects of intravenous administration of LE-ATG-AS raf ODN (SEQ ID NO:1) our Raf-1 expression in normal and tumor tissues. Raf-1 expression was examined in liver, kidneys and SQ-20B tumor xenograft of Balb/c nu/nu mice after i.v. injections of 6 mg/kg daily dose of LE-ATG-AS raf ODN (SEQ ID NO:1) (AS) or LE-ATG-S raf ODN (SEQ ID NO:3) (S) for five consecutive days. Control mice (C) received normal saline. Representative data showing Raf-1 expression in lysates normalized for protein content by immunoprecipitation and immunoblotting (top). Quantification data are shown as mean±s.d. from three mice (bottom).
FIG. 8: Inhibition of Raf-1 protein expression in SQ-20B tumor xenografts by intratumoral administration of LE-ATG-AS raf ODN (SEQ ID NO:1): Each animal received intratumoral injections of LE-ATG-AS raf ODN (SEQ ID NO:1) (AS) on the right flank and LE-ATG-S raf ODN (SEQ ID NO:3) (S) on the left flank at a dose of 4 mg/kg daily for seven days as explained in the experimental procedures. […] Quantification data shown are mean±s.d., from three representative mice. […]
For in vivo expression studies, tumor tissue and organs were homogenized in the cell lysis buffer using Polytron homogenizer (Westbury, N.Y., USA). Raf-1 expression was analyzed in tissue homogenates by immunoprecipitation and immunoblotting as described above.
(Xenograft models place foreign cells or tissue in a host animal.)

For series [2] the following is noted: mouse, in vivo, iv, 30 mg/kg.
Method: FIG. 11: The plasma concentration-time profile of LE-5132 (SEQ ID NO:4) and 5132 (SEQ ID NO:4); 30 mg/kg LE-5132 (SEQ ID NO:4) or 5132 (SEQ ID NO:4) was administered i.v. in Balb/c nu/nu mice. Blood samples were collected from the retroorbital sinus at indicated times after injection, and ODN in plasma samples was extracted and analyzed by denaturing gel electrophoresis as described. […] Quantification data were calculated based on comparison with known concentrations of the standard samples and then normalized against sample dilution factors used for loading.
Male Balb/c nu/nu mice (National Cancer Institute, Frederick, Md.) were maintained in the Division of Comparative Medicine, Georgetown University, according to accredited procedures, and fed purina chow and water ad libitum. Mice were injected i.v. via the tail vein with 30 mg/kg of LE-5132 (SEQ ID NO:4) or 5132 (SEQ ID NO:4) formulated in PBS. At 5, 15, and 30 minutes and 1, 2, 4, 8, 24, and 48 hours after injection, animals were bled, under anesthesia, from the retroorbital sinus into heparinized tubes and killed by cervical dislocation. The blood was centrifuged immediately at 300 g for 10 minutes at 4° C. to separate the plasma. The liver, spleen, kidney, heart, and lungs were rapidly excised and rinsed in ice-cold normal saline. The plasma and organs were stored at −70° C. until further analysis.
Antisense raf ODN concentrations in plasma and tissue samples were detected as we described earlier (Gokhale et al., 1997). Briefly, the ODN was isolated from plasma samples using the phenol-chloroform extraction method and from tissues using a DNA extraction kit (Stratagene, La Jolla, Calif.). The raf ODN concentration standards were prepared by adding known amounts of 5132 (SEQ ID NO:4) in blank plasma or blank tissue samples, followed by extraction as described earlier. The extracts were loaded onto 20% pblyacrylamide/8 M urea gels and electrophoresed in TBE buffer. The gels were electroblotted onto nylon membranes in 0.5×TBE buffer at 20 V for one hour, and the blots were probed with [^32P]-labeled sense raf ODN probe in Quickhyb buffer (Stratagene) at 30° C. overnight. A 10–50-fold excess of the probe was used to ensure saturation of all bands. The autoradiographs were scanned using a computer program (Image-Quant software), and the amounts of antisense raf ODN in the samples were calculated by comparison with standards.
Another series concerns SQ-20B tumor xenografts. Nature of the series: SQ-20B tumor xenograft growth (LE-5132, 5132, ionizing radiation). The following applies: 10 mg/kg i.v. daily 7 days then three doses on alternate days; day 35. The class given is in vivo, Balb/c nu/nu mice. The protocol:
FIG. 13: Effect of LE-5132 (SEQ ID NO:4) on […] tumor growth. SQ-20B rumor cells (2×10^6) were injected a.c. into the left flank region of each male Balb/c nu/nu mouse, 10–12 weeks old. Tumor xenografts were grown to a mean tumor volume of 94±6.4 mm^3, and the animals were randomized into two treatment groups. Day 0 represents the first day of treatment. […] The data shown are mean±SE of 5–7 animals per group.
FIG. 15: Effect of LE-5132 (SEQ ID NO:4) and ionizing radiation on SQ-20B rumor growth. (A) SQ-20B tumor xenografts were grown in male Balb/c nu/nu mice as described. Animals bearing a mean tumor volume of 72.0±4.3 mm^3 were randomized into five treatment groups. Day 0 represents the first day of treatment. […]
Logarithmically growing SQ-20B cells were injected s.c. (2×10^o cells) in the left flank region in male Balb/c nu/nu mice under mild anesthesia. […] Volumes for tumors were determined from caliper measurements of the three major axes (a, b, c) and calculated using abc/2, an approximation for the volume of an ellipse (πabc/6).
For each experiment, tumor-bearing mice were randomly divided into different treatment group, with 5–7 animals per group. […] Using TLD dosimetry, the average dose rate to the center of the tumor and to the mouse body were determined beforehand using the experimental irradiation conditions and a custom-made, tissue-equivalent, mouse phantom. […]

In series [3] the test system is Raf-1. Nature of the series: Raf-1 immunoprecipitation and immunoblotting in SQ-20B cells (5132, LE-5132, LE-10353). In kind it is cell-based, human. The protocol: FIG. 9: Antisense sequence-specific inhibition of Raf-1 expression in SQ-20B cells. (A) Logarithmically growing SQ-20B cells were treated with indicated ODN concentrations of LE-5132 (SEQ ID NO:4) (lanes 3, 5 and 10), 5132 (SEQ ID NO:4) (lanes 4 and 6), or LE-10353 (SEQ ID NO:5) (lane 9) as described in Materials and Methods. Control cells were either left untreated (lanes 1 and 7) or treated with 1 uM blank liposomes (BL) (lanes 2 and 8). Whole cell lysates were normalized for total protein content and immunoprecipitated with agarose-conjugated polyclonal anti-Raf-1 antibody. Immune complexes were resolved by 7.5% SDS-PAGE and immunoblotted with polyclonal anti-Raf-1 antibody. (B) Data from three independent experiments were quantified and expressed relative to the level of Raf-1 in untreated cells.
On day two, cells were rinsed with fresh 30% FBS, followed by a second course of the treatment schedule as on day one for an additional 24 hours. This procedure yielded a minimal exposure of cells of LE-5132 (SEQ ID NO:4) 12 hours). […] The lysates were clarified by centrifugation at 16,000 g for 20 minutes, and the protein concentrations were determined (Pierce, Rockford, Ill.). […] The Raf-1 protein level was quantified using the computer software program Image-Quant (Molecular Dynamics, Sunnyvale, Calif.).

In the case of “5′-GCAT-CAATGGAGCAC-3′ (sense GCATCAATGGAGCAC; listed as DNA, chemistry not fully specified) [ATG-S raf ODN]”, in the series on Raf-1 [1], the “effect on Raf-1 expression in tumor tissue” value is recorded as “no effect”.
In the case of “5′-TCC-CGC-CTG-TGA-CAT-GCA-TT-3′ [compound 5132]”, in series [2], the AUCarea came out at 6.20 µg·h/mL, the “CL (total body clearance)” value was found to be 4.82 L/h/kg, the “Cmax (peak plasma concentration)” value was 13.57 µg/mL and the “Vdarea (volume of distribution)” value was determined as 29.96 L/kg. In series [2], the initial distribution half-life was 0.36 h, the “t1/2β (elimination half-life)” value is 4.30 h and the “terminal half-life (t1/2β)” value worked out at 4.3 h. For the same substance, the “mean tumor volume compared with day 0 (100%)” value with SQ-20B tumor xenografts is listed as 159.6%±10.0%. The “effect on Raf-1 expression in cell culture” value in the series with Raf-1 [3] is given as “ineffective”.
